Data from patent publication US9630977B2, “Cephalosporin derivatives and pharmaceutical compositions thereof” (Legochem Biosciences, Inc., priority 2011, dated 2017).
Converted amounts (≈) assume the structure as drawn.

Each compound was assayed on P. aeruginosa 37 (assay: In vitro antibacterial activity test (broth microdilution)). Conditions: Pseudomonas aeruginosa, 37, P. aeruginosa 37; read-out: MIC90.
Type: cell-based
Procedure: (§1) To evaluate antibacterial activity of each of the compounds of Examples 1 to 68, in vitro antibacterial activity test was performed.
(§2) The in vitro antibacterial activity was evaluated by measuring MIC90 (ug/mL) of each of the compounds of Examples 1 to 68, which is defined as the lowest concentration of an antibiotic that will inhibit the visible growth of 90% of microorganisms after incubation as compared with a control group to which the antibiotic is not treated. MIC90 values were measured by the broth microdilution method developed by the Clinical and Laboratory Standards Institute (CLSI) (see CLSI M7-A5, Methods for Dilution Antimicrobial Susceptibility Test for Bacteria that Grow Aerobically-Fifth Edition (2000): CLSI, Villanova, Pa.).
(§3) In vitro antibacterial activity was measured with respect to the following 19 clinical isolates: M. catarrhalis; P. aeruginosa (5 strains); K. pneumoniae (6 strains); A. baumannii (3 strains); E. coli (2 strains); A. calcoaceticus; and E. cloacae.
(§4) Test compounds each (the cephalosporin derivative compounds prepared in Examples 1 to 68) were dissolved in DMSO at the concentration of 10,240 ug/mL, were diluted by two fold with DMSO, and then were diluted by twenty fold with sterilized distilled water. The final concentration in the antibacterial activity test was in the range of […] to 128 ug/mL, and the final concentration of DMSO used as an adjuvant was 2.5% (V/V).
With `CC(C)(O/N=C(\C(=O)N[C@@H]1C(=O)N2C(C(=O)[O-])=C(C[n+]3cnc(N)c(NC(=O)CNC(=O)c4ccc(O)c(O)c4)c3)CSC12)c1csc(N)n1)C(=O)O` (stereo partly shown) [Compound 32] the MIC90 was 4 µg/mL (≈ 5.19 µM). With `CC(=O)Nc1c[n+](CC2=C(C(=O)[O-])N3C(=O)[C@@H](NC(=O)/C(=N\OC(C)(C)C(=O)O)c4csc(N)n4)C3SC2)cnc1N` (stereo partly shown) [Compound 68] the MIC90 was 128 µg/mL (≈ 207 µM).

These compounds were tested on M. catarrhalis 2524 in the same assay as above. Conditions: Moraxella catarrhalis; M. catarrhalis 2524; read-out: MIC90.
Type: cell-based
Procedure: as §1, §2, §3, §4
`CC(C)(O/N=C(\C(=O)N[C@@H]1C(=O)N2C(C(=O)[O-])=C(C[n+]3cnc(N)c(NC(=O)CNC(=O)c4ccc(O)c(O)c4)c3)CSC12)c1csc(N)n1)C(=O)O` (stereo partly shown) [Compound 32] showed an MIC90 of 0.25 µg/mL (≈ 0.324 µM).

Each compound was assayed on E. coli β4 in the same assay as above. Conditions: Escherichia coli, read-out: MIC90.
Type: cell-based
Procedure: as §1, §2, §3, §4
Compound `CC(C)(O/N=C(\C(=O)N[C@@H]1C(=O)N2C(C(=O)[O-])=C(C[n+]3cnc(N)c(NC(=O)CNC(=O)c4ccc(O)c(O)c4)c3)CSC12)c1csc(N)n1)C(=O)O` (stereo partly shown) [Compound 32] has an MIC90 of 8 µg/mL (≈ 10.4 µM). `CC(=O)Nc1c[n+](CC2=C(C(=O)[O-])N3C(=O)[C@@H](NC(=O)/C(=N\OC(C)(C)C(=O)O)c4csc(N)n4)C3SC2)cnc1N` (stereo partly shown) [Compound 68] gave an MIC90 of 8 µg/mL (≈ 12.9 µM).

Each compound was assayed on E. coli AG100 in the same assay as above. Conditions: Escherichia coli, AG100, E. coli AG100; read-out: MIC90.
Type: cell-based
Procedure: as §1, §2, §3, §4
Work on `CC(C)(O/N=C(\C(=O)N[C@@H]1C(=O)N2C(C(=O)[O-])=C(C[n+]3cnc(N)c(NC(=O)CNC(=O)c4ccc(O)c(O)c4)c3)CSC12)c1csc(N)n1)C(=O)O` (stereo partly shown) [Compound 32] yielded an MIC90 of less than 0.0625 µg/mL. `CC(=O)Nc1c[n+](CC2=C(C(=O)[O-])N3C(=O)[C@@H](NC(=O)/C(=N\OC(C)(C)C(=O)O)c4csc(N)n4)C3SC2)cnc1N` (stereo partly shown) [Compound 68] was tested, and the MIC90 was 0.5 µg/mL (≈ 0.807 µM).

The compounds below were run on P. aeruginosa 43 in the same assay as above. Conditions: Pseudomonas aeruginosa; P. aeruginosa 43; read-out: MIC90.
Type: cell-based
Procedure: as §1, §2, §3, §4
`CC(C)(O/N=C(\C(=O)N[C@@H]1C(=O)N2C(C(=O)[O-])=C(C[n+]3cnc(N)c(NC(=O)CNC(=O)c4ccc(O)c(O)c4)c3)CSC12)c1csc(N)n1)C(=O)O` (stereo partly shown) [Compound 32] was tested, and the MIC90 was 0.5 µg/mL (≈ 0.649 µM).

Each compound was assayed on E. cloacae β19 in the same assay as above. Conditions: Enterobacter cloacae, read-out: MIC90.
Type: cell-based
Procedure: as §1, §2, §3, §4
`CC(C)(O/N=C(\C(=O)N[C@@H]1C(=O)N2C(C(=O)[O-])=C(C[n+]3cnc(N)c(NC(=O)CNC(=O)c4ccc(O)c(O)c4)c3)CSC12)c1csc(N)n1)C(=O)O` (stereo partly shown) [Compound 32] showed an MIC90 of 128 µg/mL (≈ 166 µM). Compound `CC(=O)Nc1c[n+](CC2=C(C(=O)[O-])N3C(=O)[C@@H](NC(=O)/C(=N\OC(C)(C)C(=O)O)c4csc(N)n4)C3SC2)cnc1N` (stereo partly shown) [Compound 68] has an MIC90 of 128 µg/mL (≈ 207 µM).

The compounds below were run on A. baumannii 46 in the same assay as above. Conditions: Acinetobacter baumannii; A. baumannii 46; read-out: MIC90.
Type: cell-based
Procedure: as §1, §2, §3, §4
Work on `CC(C)(O/N=C(\C(=O)N[C@@H]1C(=O)N2C(C(=O)[O-])=C(C[n+]3cnc(N)c(NC(=O)CNC(=O)c4ccc(O)c(O)c4)c3)CSC12)c1csc(N)n1)C(=O)O` (stereo partly shown) [Compound 32] yielded an MIC90 of 1 µg/mL (≈ 1.3 µM). In the case of `CC(=O)Nc1c[n+](CC2=C(C(=O)[O-])N3C(=O)[C@@H](NC(=O)/C(=N\OC(C)(C)C(=O)O)c4csc(N)n4)C3SC2)cnc1N` (stereo partly shown) [Compound 68], the MIC90 is reported as 8 µg/mL (≈ 12.9 µM).

What follows are compounds tested on P. aeruginosa 6065Y in the same assay as above. Conditions: Pseudomonas aeruginosa, read-out: MIC90.
Type: cell-based
Procedure: as §1, §2, §3, §4
With `CC(C)(O/N=C(\C(=O)N[C@@H]1C(=O)N2C(C(=O)[O-])=C(C[n+]3cnc(N)c(NC(=O)CNC(=O)c4ccc(O)c(O)c4)c3)CSC12)c1csc(N)n1)C(=O)O` (stereo partly shown) [Compound 32] the MIC90 was 4 µg/mL (≈ 5.19 µM). With `CC(=O)Nc1c[n+](CC2=C(C(=O)[O-])N3C(=O)[C@@H](NC(=O)/C(=N\OC(C)(C)C(=O)O)c4csc(N)n4)C3SC2)cnc1N` (stereo partly shown) [Compound 68] the MIC90 was 16 µg/mL (≈ 25.8 µM).

These compounds were tested on K. pneumoniae β14 in the same assay as above. Conditions: Klebsiella pneumoniae, read-out: MIC90.
Type: cell-based
Procedure: as §1, §2, §3, §4
`CC(C)(O/N=C(\C(=O)N[C@@H]1C(=O)N2C(C(=O)[O-])=C(C[n+]3cnc(N)c(NC(=O)CNC(=O)c4ccc(O)c(O)c4)c3)CSC12)c1csc(N)n1)C(=O)O` (stereo partly shown) [Compound 32] gave an MIC90 of 64 µg/mL (≈ 83 µM). Work on `CC(=O)Nc1c[n+](CC2=C(C(=O)[O-])N3C(=O)[C@@H](NC(=O)/C(=N\OC(C)(C)C(=O)O)c4csc(N)n4)C3SC2)cnc1N` (stereo partly shown) [Compound 68] yielded an MIC90 of 32 µg/mL (≈ 51.6 µM).

These compounds were tested on P. aeruginosa 1912E in the same assay as above. Conditions: Pseudomonas aeruginosa, 1912E, read-out: MIC90.
Type: cell-based
Procedure: as §1, §2, §3, §4
With `CC(C)(O/N=C(\C(=O)N[C@@H]1C(=O)N2C(C(=O)[O-])=C(C[n+]3cnc(N)c(NC(=O)CNC(=O)c4ccc(O)c(O)c4)c3)CSC12)c1csc(N)n1)C(=O)O` (stereo partly shown) [Compound 32] the MIC90 was 2 µg/mL (≈ 2.59 µM). With `CC(=O)Nc1c[n+](CC2=C(C(=O)[O-])N3C(=O)[C@@H](NC(=O)/C(=N\OC(C)(C)C(=O)O)c4csc(N)n4)C3SC2)cnc1N` (stereo partly shown) [Compound 68] the MIC90 was 4 µg/mL (≈ 6.46 µM).

What follows are compounds tested on P. aeruginosa 40 in the same assay as above. Conditions: Pseudomonas aeruginosa, 40, P. aeruginosa 40; read-out: MIC90.
Type: cell-based
Procedure: as §1, §2, §3, §4
With `CC(C)(O/N=C(\C(=O)N[C@@H]1C(=O)N2C(C(=O)[O-])=C(C[n+]3cnc(N)c(NC(=O)CNC(=O)c4ccc(O)c(O)c4)c3)CSC12)c1csc(N)n1)C(=O)O` (stereo partly shown) [Compound 32] the MIC90 was 4 µg/mL (≈ 5.19 µM). With `CC(=O)Nc1c[n+](CC2=C(C(=O)[O-])N3C(=O)[C@@H](NC(=O)/C(=N\OC(C)(C)C(=O)O)c4csc(N)n4)C3SC2)cnc1N` (stereo partly shown) [Compound 68] the MIC90 was 4 µg/mL (≈ 6.46 µM).

Each compound was assayed on A. calcoaceticus ATCC15473 in the same assay as above. Conditions: Acinetobacter calcoaceticus; A. calcoaceticus ATCC15473; read-out: MIC90.
Type: cell-based
Procedure: as §1, §2, §3, §4
Compound `CC(C)(O/N=C(\C(=O)N[C@@H]1C(=O)N2C(C(=O)[O-])=C(C[n+]3cnc(N)c(NC(=O)CNC(=O)c4ccc(O)c(O)c4)c3)CSC12)c1csc(N)n1)C(=O)O` (stereo partly shown) [Compound 32] has an MIC90 of 0.5 µg/mL (≈ 0.649 µM). `CC(=O)Nc1c[n+](CC2=C(C(=O)[O-])N3C(=O)[C@@H](NC(=O)/C(=N\OC(C)(C)C(=O)O)c4csc(N)n4)C3SC2)cnc1N` (stereo partly shown) [Compound 68] gave an MIC90 of 1 µg/mL (≈ 1.61 µM).

Each compound was assayed on K. pneumoniae 2011E in the same assay as above. Conditions: Klebsiella pneumoniae, 2011E, K. pneumoniae 2011E; read-out: MIC90.
Type: cell-based
Procedure: as §1, §2, §3, §4
For `CC(C)(O/N=C(\C(=O)N[C@@H]1C(=O)N2C(C(=O)[O-])=C(C[n+]3cnc(N)c(NC(=O)CNC(=O)c4ccc(O)c(O)c4)c3)CSC12)c1csc(N)n1)C(=O)O` (stereo partly shown) [Compound 32], the MIC90 was 1 µg/mL (≈ 1.3 µM). Compound `CC(=O)Nc1c[n+](CC2=C(C(=O)[O-])N3C(=O)[C@@H](NC(=O)/C(=N\OC(C)(C)C(=O)O)c4csc(N)n4)C3SC2)cnc1N` (stereo partly shown) [Compound 68] has an MIC90 of 1 µg/mL (≈ 1.61 µM).

These compounds were tested on A. baumannii 49 in the same assay as above. Conditions: Acinetobacter baumannii; A. baumannii 49; read-out: MIC90.
Type: cell-based
Procedure: as §1, §2, §3, §4
`CC(C)(O/N=C(\C(=O)N[C@@H]1C(=O)N2C(C(=O)[O-])=C(C[n+]3cnc(N)c(NC(=O)CNC(=O)c4ccc(O)c(O)c4)c3)CSC12)c1csc(N)n1)C(=O)O` (stereo partly shown) [Compound 32] gave an MIC90 of 32 µg/mL (≈ 41.5 µM). With `CC(=O)Nc1c[n+](CC2=C(C(=O)[O-])N3C(=O)[C@@H](NC(=O)/C(=N\OC(C)(C)C(=O)O)c4csc(N)n4)C3SC2)cnc1N` (stereo partly shown) [Compound 68] the MIC90 was 128 µg/mL (≈ 207 µM).

These compounds were tested on A. baumannii 52 in the same assay as above. Conditions: Acinetobacter baumannii; A. baumannii 52; read-out: MIC90.
Type: cell-based
Procedure: as §1, §2, §3, §4
In the case of `CC(C)(O/N=C(\C(=O)N[C@@H]1C(=O)N2C(C(=O)[O-])=C(C[n+]3cnc(N)c(NC(=O)CNC(=O)c4ccc(O)c(O)c4)c3)CSC12)c1csc(N)n1)C(=O)O` (stereo partly shown) [Compound 32], the MIC90 is reported as 16 µg/mL (≈ 20.8 µM). `CC(=O)Nc1c[n+](CC2=C(C(=O)[O-])N3C(=O)[C@@H](NC(=O)/C(=N\OC(C)(C)C(=O)O)c4csc(N)n4)C3SC2)cnc1N` (stereo partly shown) [Compound 68] was tested, and the MIC90 was 128 µg/mL (≈ 207 µM).
